The text below walks through data of patent publication US5175283A, “Azetidin-2-one derivatives as serine protease inhibitors” (Bristol-Myers Squibb Company, priority 1992, dated 1992).

Holding throughout (format): biochemical
In test [1] the target is T1, human α-thrombin (Homo sapiens, UniProt P00734).
T1 construct: purified human α-thrombin dissolved in thrombin assay buffer
Nature of the test: Enzyme assay for the inhibition of thrombin (s-2238 substrate). The settings on record: for IC50: 3 min incubation of drug with enzyme, room temperature; for Thrombin k2 /ki (second order rate constant for inactivation of the enzyme): human α-thrombin, s-2238, pH 7.4, room temperature. How it is done: 1. Enzyme Assays for the Inhibition of Thrombin The following reagents were used in these assays: Thrombin assay buffer: 145 mM NaCl, 5 mM KCl, 30 mM N-2-hydroxyethyl piperazine-N'-2-ethanesulfonic acid, pH 7.4, 1 mg/ml polyethylene glycol (PEG-8000). 3 mM D-Phe-Pip-Arg-p-nitroanilide (s-2238) in H2 O. 3 U/ml purified human α-thrombin dissolved in thrombin assay buffer. Inhibitors to be tested were dissolved in H2 O, methanol, or DMSO just prior to use. Assay Procedure To each well in a 96-well microtiter plate, 270 μl of assay buffer was added. Human α-thrombin (10 μl of 3 U/ml) was added, then 10 μl of inhibitor were added and mixed. The samples were incubated at room temperature for a defined period of time (3 min for initial IC50 determinations). The enzymic reaction was started with 10 μl of 3 mM s-2238 substrate and continued at room temperature. The change in optical density was measured at 405 nm. A kinetic microplate reader (Molecular Devices Corporation Vmax) was used to measure the change in optical density over time. Results are reported in Table 1 as IC50 values, i.e., the drug concentration in mole/liter which caused 50% inhibition of the enzyme activity (after incubation of the drug with the enzyme for 3 min). Alternatively, results are also reported in Table 1 expressed as k2 /ki which is the second order rate constant in per mole per minute for inactivation time of the enzyme [Kitz, et al., J. Biol. Chem., 237, 3245 (1962)].

Test [2] deals with T2, bovine pancreatic trypsin (Bos taurus, UniProt P00760).
T2 construct: purified bovine pancreatic trypsin dissolved in trypsin assay buffer
T2 sequence (P00760 24-246): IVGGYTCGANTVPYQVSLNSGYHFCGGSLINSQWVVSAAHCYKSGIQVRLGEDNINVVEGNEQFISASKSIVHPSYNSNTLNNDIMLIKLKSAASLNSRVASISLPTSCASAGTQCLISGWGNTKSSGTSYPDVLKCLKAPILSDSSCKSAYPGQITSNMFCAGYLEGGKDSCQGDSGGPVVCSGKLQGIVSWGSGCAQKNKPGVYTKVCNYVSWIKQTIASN
Nature of the test: Enzyme assay for the inhibition of trypsin (Z-Val-Gly-Arg-pNA substrate). How it is done: 2. Enzyme Assays for the Inhibition of Trypsin
The following reagents were used in these assays:
Trypsin assay buffer: 2 mM CaCl2, 50 mM Tris/Cl pH 8.0.
3 mM Z-Val-Gly-Arg-pNA (Chromzyme TRy) dissolved in H2 O.
6 μg/ml of purified bovine pancreatic trypsin dissolved in trypsin assay buffer.
Inhibitors to be tested were dissolved in H2 O, methanol or DMSO just prior to use.
To each well in a 96-well microtiter plate, 270 μl of assay buffer was added. Bovine trypsin (10 μl of 6 μg/ml) was added. Inhibitor (10 μl ) was added, mixed, and then incubated at room temperature for 3 min. The enzymic reaction was started with 10 μl of 3 mM Z-Val-Gly-Arg-pNA substrate. The change in optical density was measured at 405 nm at room temperature. A kinetic microplate reader (Molecular Devices Corporation Vmax) was used to measure the change in optical density over time.
Results are reported in Table 1 as IC50 values, i.e., the drug concentration in mole/liter which caused 50% inhibition of the enzyme activity (after incubation of the drug with the enzyme for 3 min).

In test [3] the target is T1, human α-thrombin. Briefly: Concentration required for doubling thrombin clotting time in human plasma. As to conditions: human citrated plasma, 10 U/ml human thrombin; read-out: ED50, drug concentration required to double clotting time. The procedure: Procedure for Determining the Concentration Required for Doubling Thrombin Clotting Time--Clotting Time Assays The following reagents were used in these assays: Owren's Veronal Buffer: 125 mM NaCl, 28.4 mM sodium barbital, pH 7.35. Human citrated plasma obtained from human volunteers or citrated plasma obtained from IP-dosed animals (prepared as described below). 10 NIH Units/ml human α-thrombin in thrombin buffer for use with human plasma. […] The blood was centrifuged at […] (480×g) for 15 min at room temperature (using a Sorvall RT 6000B centrifuge). The plasma was removed, pooled, and aliquoted into small tubes which were stored frozen for later use. Clotting Time Measurement Clotting times were determined by pipetting 0.1 ml of Owren's buffer (pre-warmed 37° C.) and 0.1 ml of human or rat plasma into yellow sample cuvettes. For studies with human plasma 10 U/ml human thrombin (10 ml) was placed in the reservoir assembly station of the MLA 700. (Medical Laboratory Automation, Electra 700 Reservoir Assembly). For rat studies, the human thrombin concentration was 25 U/ml. The cuvettes were vortexed and then placed on the MLA 700 sample wheel. The coagulation timer (MLA 700) automatically dispenses 0.1 ml human thrombin into the sample in each cuvette. Detection of the fibrin clot was determined optically by the MLA 700. Studies were performed to determine the concentration of drug which caused a doubling of the clotting time in human plasma. From standard curves of thrombin activity added to the sample versus the clotting time, the concentration of drug which caused a doubling of the thrombin clotting time corresponded to inhibition of approximately 1/2 of the added thrombin clotting activity. Results are reported in Table 1 as ED50 values, i.e., the drug concentration required to double clotting time.

Where [4] appears, read: 3 min incubation of drug with enzyme, room temperature, pH 8.0, read-out: Trypsin IC50.

Molecules are shown by their SMILES. Where a name gives a salt, the structure may show the parent alone. Read-outs that look alike come from different tables or passages of the source.

For `CCS[C@H]1[C@H](CCCNC(=N)N)C(=O)N1C(C)=O` (relative stereo) [VII, trans-4-Ethylthio-3-quanidinopropyl-1-acetyl-2-azetidinone hydrochloride salt], at human α-thrombin [1], the IC50 is 12.5 nM and the “Thrombin k2 /ki (second order rate constant for inactivation of the enzyme)” value (“Thrombin k2 /ki” below) was 5.6 × 10^6 m^-1 min^-1. In addition, the IC50 in test [2] (setting [4]) is 36 nM. Further, the IC (2-fold clotting time) on human α-thrombin [3] is reported as 0.75 µM.

With `CN(C)c1cccc2c(S(=O)(=O)N3C(=O)[C@@H](CCCNC(=N)N)[C@@H]3C(=O)N3CCCCC3)cccc12` (relative stereo) [XII, trans-4-(1-Piperidinocarbonyl)-3-guanidinooropyl-1-[(5-dimethylamino)-1-naphthalenesulfonyl]-2-azetidinone hydrochloride salt], at human α-thrombin [1], the IC50 is 10 nM and the “Thrombin k2 /ki” value is recorded as 2.8 × 10^6 m^-1 min^-1. Moreover, in test [2] (setting [4]), the half-maximal inhibitory concentration (IC50) was 14 nM. In addition, at human α-thrombin [3], the IC (2-fold clotting time) was 30 µM.

With `CC(=O)N1C(=O)[C@@H](CCCNC(=N)N)[C@@H]1C(=O)Nc1ccc(C)cc1` (relative stereo) [XVI, trans-4-(4-Methylbenzeneaminocarbonyl)-3-guanidinopropyl-1-acetyl-2-azetidinone hydrochloride salt], at human α-thrombin [1], the IC50 turned out to be 25 nM and the “Thrombin k2 /ki” value was 1.3 × 10^6 m^-1 min^-1. In addition, the 50% inhibitory concentration (IC50) in test [2] (setting [4]) is 120 nM. Further, the IC (2-fold clotting time) at human α-thrombin [3] stood at 0.5 µM.

As to `Cc1ccc(S(=O)(=O)N2C(=O)[C@@H](CCCNC(=N)N)[C@@H]2C(=O)N2CCCCC2)cc1` (relative stereo) [XIII, trans-4-(1-Piperidinocarbonyl)-3-guanidinooropyl-1-p-toluenesulfonyl-2-azetidinone hydrochloride salt], on human α-thrombin [1], inhibition was half-maximal at 3 nM (IC50) and the “Thrombin k2 /ki” value is 4.5 × 10^7 m^-1 min^-1. The IC50 in test [2] (setting [4]) was determined as 120 nM. For the same molecule, on human α-thrombin [3], the IC (2-fold clotting time) is 80 µM.

`CC(=O)N1C(=O)[C@@H](CCCNC(=N)N)[C@@H]1C(=O)O` (relative stereo) [XIV, trans-4-Carboxy-3-quanidinopropyl-1-acetyl-2-azetidinone hydrochloride salt]: the IC50 against human α-thrombin [1] came to 390 nM; in test [2] (setting [4]), 12 nM. Further, on human α-thrombin [3], the IC (2-fold clotting time) is 12 µM.

As to `COC(=O)[C@H]1[C@H](CCCNC(=N)N)C(=O)N1C(=O)Nc1ccccc1` (relative stereo) [V, trans-4-Methoxycarbonyl-3-(3-quanidinopropyl)-1-phenylaminocarbonyl-2-azetidinone hydrochloride salt], on human α-thrombin [1], half-maximal inhibition (IC50) was put at 1700 nM and the “Thrombin k2 /ki” value was 8.3 × 10^4 m^-1 min^-1. Further, the IC50 in test [2] (setting [4]) is 5 nM. At human α-thrombin [3], the IC (2-fold clotting time) was 30 µM.

Regarding `CC(=O)N1C(=O)[C@@H](CCCNC(=N)N)[C@@H]1CCc1ccccc1` (relative stereo) [XV, trans-4-(2-Phenylethyl)-3-guanidinooropyl-1-acetyl-2azetidinone hydrochloride salt], at human α-thrombin [1], the midpoint of inhibition, the IC50, lay at 210 nM and the “Thrombin k2 /ki” value is reported as 1.5 × 10^6 m^-1 min^-1. Further, the IC50 in test [2] (setting [4]) was determined as 470 nM. Further, the IC (2-fold clotting time) at human α-thrombin [3] was found to be 3 µM.

Regarding `CC(=O)OC1C(CCCNC(=N)N)C(=O)N1C(C)=O` (stereo not drawn) [XX, 4-Acetyloxy-3-quanidinopropyl-1-acetyl-2-azetidinone hydrochloride salt], at human α-thrombin [1], the midpoint of inhibition, the IC50, lay at 12 nM and the “Thrombin k2 /ki” value is listed as 4.2 × 10^7 m^-1 min^-1. In addition, half-maximal inhibition in test [2] (IC50) required 12 nM. For the same molecule, the IC (2-fold clotting time) at human α-thrombin [3] is recorded as 0.34 µM.

As for `COC(=O)[C@H]1[C@H](CCCNC(=N)N)C(=O)N1S(=O)(=O)c1cccc2c(N(C)C)cccc12` (relative stereo) [III, trans-4-Methoxycarbonyl-3-(3-guanidinopropyl)-1-[(5-dimethylamino)-1-naphthalenesulfonyl]-2-azetidinone hydrochloride salt], at human α-thrombin [1], the IC50 stood at 16 nM and the “Thrombin k2 /ki” value is on record as 2.1 × 10^7 m^-1 min^-1. Besides, the IC50 in test [2] (setting [4]) was 720 nM. Moreover, the IC (2-fold clotting time) on human α-thrombin [3] is reported as 50 µM.

Consider `COC(=O)[C@H]1[C@H](CCCNC(=N)N)C(=O)N1S(=O)(=O)c1ccc(C)cc1.Cl` (relative stereo) [I, trans-4-Methoxycarbonyl-3-(3-guanidinopropyl)-1-p-toluenesulfonyl-2-azetidinone hydrochloride salt], for which, on human α-thrombin [1], the IC50 was 2 to 9 nM and the “Thrombin k2 /ki” value was 1.2 × 10^8 m^-1 min^-1. In test [2] (setting [4]), the IC50 came out at 8 nM. Moreover, the IC (2-fold clotting time) at human α-thrombin [3] came to 65 µM.

Broadly, the IC50 is the concentration at which inhibition is half-maximal.
